Data from patent US20250263376A1, “(E)-N-CINNAMOYLAMINOALKANOLS WITH MELANOGENESIS INHIBITORY ACTIVITY” (Uniwersytet Jagiellonski, priority 2024, published 2025).

Columns and labels:
[1] = target: T1, tyrosinase released from B16-F10 cells (Mus musculus, UniProt P11344); test: Inhibition of tyrosinase activity released from B16-F10 cells; assay type: cell-based, murine; conditions: 24 h incubation, α-MSH, L-DOPA 0.5 mM
T1 construct: endogenous in cells; host or cells: B16-F10 murine melanoma cells (alpha-MSH stimulated), Triton X-100 lysate
Protocol: Inhibition of Tyrosinase Activity Released from B16-F10 Cells
50,000 cells were placed in each well of a 24-well plate (in F10-Ham medium, 1% FBS). After 24 h of culture, the tested compounds were added in fresh medium (DMEM, 1% FBS), with an additional 5 μM of a-melanocorticotropic hormone (a-MSH) in the medium to induce melanogenesis. Three wells on the plate constituted a control sample without the melanogenesis inducer (a-MSH) and without the tested compounds. After 24 hours of incubation under these conditions, the medium was removed and the cells were washed twice with PBS. 100 μL of lysis buffer composed of 90 μL of 50 mM potassium phosphate buffer, 5 μL of 0.1 mM phenylmethylsulfonyl fluoride and 5 μL of 1% Triton X-100 were added to the wells. The plates were placed at −80° C. for 30 minutes. Cell lysates were then centrifuged for 30 min (4° C., 12,000 rpm), and then 80 μL of the supernatant was transferred to 96-well plates. […] After a 30-minute incubation, the absorbance was measured at 475 nm using a microplate reader. The percentage of inhibition of tyrosinase activity was calculated using the formula: [(AC−AT)/Ac]×100, where AC—is the absorbance of the negative control (from wells in which cells were cultured without the tested compounds), AT—is the absorbance of the sample from wells in which cells were cultured in the presence of the test compound.

[2] = system: human reconstructed epidermis Episkin; test: Skin permeation studies in reconstructed human epidermis Episkin; assay type: in vitro ADME
Protocol: The tested substance A-111 in a macrogol formulation (2% A-111 in the PEG400+PEG800 base) was applied onto the epidermis in an amount of approximately 10 mg/cm^2 (“finite dose application”) using a sterile inoculation loop. The amount applied was weighed accurately. As a control, a macrogol formulation without the test substance was applied onto the epidermis. The finished experimental plate was incubated at 32° C. At specific time intervals, aliquots of the receptor fluid (0.5 mL) were collected for the analysis and replaced with 0.5 mL of fresh receptor fluid. After 24 h of culture, all of the receptor fluid was collected. The examined tissue was washed with cotton buds soaked in methanol. The donor and receptor compartments were washed with methanol, and the epidermis was separated from the inserts and transferred to methanol. Samples were stored at −20° C. until analysis. The content (concentration) of the tested substance A-111 in the receptor fluid and in individual compartments: on the surface of the epidermis, in the epidermis, in the receptor fluid was determined using measurements in a microplate reader at 281 nm on 96-well plates transmitting ultraviolet radiation.
In order to confirm proper bioavailability, studies of the permeation of compound A-111 from a solution in PEG400 were performed in a model of reconstructed human epidermis. […] The tested substance A-111 was applied onto the epidermis in the form of a 2% PEG400 solution in an amount of 15 μL. The finished experimental plate was incubated at 32° C. At specific time intervals, aliquots of the receptor fluid (0.5 mL) were collected for the analysis and replaced with fresh fluid. After 24 h of culture, all of the receptor fluid was collected. The examined tissue was washed with cotton buds soaked in methanol. The donor and receptor compartments were washed with methanol, and the epidermis was separated from the inserts and transferred to methanol. The content (concentration) of the tested substance A-111 in the acceptor fluid and in individual compartments: on the surface of the epidermis, in the epidermis, in the receptor fluid was determined using measurements in a microplate reader at 281 nm on 96-well plates transmitting ultraviolet radiation.
Permeation studies of the A-111 compound from a cosmetic formulation were performed in a model of reconstructed human epidermis. […] 25 μL of the formulation containing the tested compound A-111 was applied to the epidermis. […] The content (concentration) of the tested substance A-111 in the receptor fluid and in individual compartments: on the surface of the epidermis, in the epidermis, in the receptor fluid was determined using measurements in a microplate reader at 281 nm on 96-well plates transmitting ultraviolet radiation.

[3] = system: Balb/c 3T3 murine fibroblast cell line; test: Phototoxicity, neutral red uptake in Balb/c 3T3 fibroblasts; conditions: for PIF (photoirritation factor): ratio of IC50 of unirradiated to irradiated cells; for cytotoxicity towards mouse fibroblasts: with and without UVA exposure
Protocol: d) Phototoxicity Assessment Using the Balb/c 3T3 Murine Fibroblast Cell Line
Balb/c 3T3 cells, which are an immortalized murine fibroblast cell line, were purchased at ATTC and cultured in the medium recommended by the manufacturer (DMEM GlutaMAX, newborn calf serum (BCS), antibiotics). After multiplication, cells were placed in 96-well plates, which were incubated for 24 hours, after which all wells of the plates were washed with 150 μL of balanced salt solution (HBSS). Then, after drying the plates, 100 μL of a solution of the tested compounds in HBSS with 2% FBS was added to each well and incubated for an hour. After this time, some of the plates were irradiated using the Suntest CPS+sunlight simulator from Atlas with appropriate filters cutting off radiation with a wavelength <320 nm (UVA radiation intensity 5 J/cm^2). The second part of the plates was placed in radiation-free conditions for the same period of time. After the exposure time, the liquid was removed from all plates and the wells were washed twice with 150 μL of HBSS, then supplemented with fresh culture medium and incubated for 24 hours in an incubator (37° C., 5% CO2). Viability was assessed in the neutral red uptake test, which is based on the ability of the dye to penetrate only into living cells. Dye uptake was confirmed by absorbance measurement at 540 nm. […] The appropriate coefficients were also calculated: mean phototoxic effect (MPE) and photoirritation factor (PIF). PIF is the ratio of the IC50 values of unirradiated to irradiated cells, while MPE is based on the comparison of concentration-response curves.

T1 sequence (P11344 19-533): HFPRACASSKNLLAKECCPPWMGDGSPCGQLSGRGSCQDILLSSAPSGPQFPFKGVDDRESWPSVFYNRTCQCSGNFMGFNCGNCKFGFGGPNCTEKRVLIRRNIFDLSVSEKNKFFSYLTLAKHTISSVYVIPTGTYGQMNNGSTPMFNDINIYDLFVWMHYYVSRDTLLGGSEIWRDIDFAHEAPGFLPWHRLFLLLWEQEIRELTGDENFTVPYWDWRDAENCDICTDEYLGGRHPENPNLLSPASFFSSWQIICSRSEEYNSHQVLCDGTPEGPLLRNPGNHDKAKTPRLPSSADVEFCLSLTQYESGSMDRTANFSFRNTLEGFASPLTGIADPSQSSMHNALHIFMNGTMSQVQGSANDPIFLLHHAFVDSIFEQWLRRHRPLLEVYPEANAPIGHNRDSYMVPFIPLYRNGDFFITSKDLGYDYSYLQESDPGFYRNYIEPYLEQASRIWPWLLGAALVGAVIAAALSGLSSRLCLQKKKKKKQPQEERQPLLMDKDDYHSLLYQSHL

| SMILES | inhibition of tyrosinase released from B16-F10 cells [1] | epidermal permeation ([2]; 2% A-111 in macrogol formulation (PEG400+PEG800), about 10 mg/cm^2, 24 h) | accumulation in the epidermis ([2]; 2% A-111 in macrogol formulation, 24 h) | epidermal permeation ([2]; 2% PEG400 solution, 15 μL, 24 h) | epidermal permeation ([2]; released from cosmetic formulation, 25 μL, 24 h) | phototoxic potential [3] | PIF (photoirritation factor) [3] | cytotoxicity towards mouse fibroblasts [3] |
| --- | --- | --- | --- | --- | --- | --- | --- | --- |
| O=C(/C=C/c1ccc(Cl)cc1)NCCCCCO [Compound A-111, (2E)-3-(4-chlorophenyl)-N-(5-hydroxypentyl)prop-2-enamide] | inhibit the activity of tyrosinase released from B16-F10 cells | crosses the epidermal barrier | no accumulation | crosses the epidermal barrier | crosses the epidermal barrier | do not have phototoxic potential | No phototoxicity | devoid of cytotoxicity |
| O=C(/C=C/c1ccccc1)NCCCCCO [Compound A-133, (2E)-N-(5-hydroxypentyl)-3-phenylprop-2-enamide] | – | – | – | – | – | do not have phototoxic potential | No phototoxicity | devoid of cytotoxicity |
